According to patent publication US9890185B2, “Urea derivatives useful as kinase inhibitors” (Respivert Limited, priority 2013, dated 2018):

Columns and labels:
PBMCs = assay: IFN gamma release in CD3/CD28 stimulated PBMC cells (assay c); type: cell-based; settings: Homo sapiens, read-out: IC50 Values for Inhibition of Cytokine Release, PBMCs IFNγ
Procedure, shortened: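 Healthy-donor PBMCs (density-gradient isolated) stimulated on plates pre-coated with anti-CD3 (0.3 μg/mL) and anti-CD28 (3 μg/mL), with compound, for 3 days under normal culture conditions. IL-2 and IFN gamma in supernatants measured by sandwich ELISA; IC50 from dose-response curve.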

d-U937 cells = assay: Accumulation of β catenin in d-U937 cells (assay m); type: cell-based, human; settings: percentage relative to Reference Compound at 1 μg/mL
Procedure, shortened: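 Read-out: colourimetric cell-based immunoassay for endogenous β-catenin (OD450 minus 655 reference), normalised to crystal violet absorbance at 595 nm. Test compound or vehicle was applied for 18 hr to U937 monocytes first differentiated with PMA (100 ng/mL) for 48–72 hr.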

HT29 cells = assay: IL-1β-induced IL-8 release in HT29 cells (assay d); type: cell-based; settings: Homo sapiens, HT-29; IL-1β-stimulated HT29 cells; read-out: IC50 Values for Inhibition of Cytokine Release, HT29 cells IL-8
Procedure: HT29 cells, a human colon adenocarcinoma cell line, are plated in a 96 well plate (24 hrs) and pre-treated with compounds at the desired concentration for 2 hours before addition of 5 ng/mL of IL-1β (Abcam) for 24 hours. Supernatants are harvested for IL-8 quantification by Sandwich ELISA (Duo-set, R&D System). The IC50 is determined from the dose response curve.

Row | Structure (SMILES) | IC50 (HT29 cells) | IC50 (PBMCs) | % β-catenin induction (d-U937 cells; test compound 1 μg/mL) | % β-catenin induction (d-U937 cells; test compound 5 μg/mL) | % β-catenin induction (d-U937 cells; test compound 10 μg/mL)
1 | COc1c(CC(N)=O)cc(C(C)(C)C)cc1NC(=O)Nc1ccc(Oc2ccnc(Nc3cc(C)cc(C)c3)c2)c2ccccc12 [38(f), 2-(5-(tert-Butyl)-3-(3-(4-((2-((3,5-dimethylphenyl)amino)pyridin-4-yl)oxy)naphthalen-1-yl)ureido)-2-methoxyphenyl)acetamide] | 4.8 nM | 16.5 nM | 2.0% | 3.3% | 8.3%
2 | COCCOCCOCCOc1cc(Nc2cc(Oc3ccc(NC(=O)Nc4cc(C(C)(C)C)cc(P(C)(C)=O)c4OC)c4ccccc34)ccn2)cc(OC)c1 [Example 2, 1-(5-(tert-Butyl)-3-(dimethylphosphoryl)-2-methoxyphenyl)-3-(4-((2-((3-methoxy-5-(2-(2-(2-methoxyethoxy)ethoxy)ethoxy)phenyl)amino)pyridin-4-yl)oxy)naphthalen-1-yl)urea] | 1.7 nM | 2.9 nM | 4.0% | 32.5% | 31.5%
3 | C#Cc1cc(Nc2cc(Oc3ccc(NC(=O)Nc4cc(C(C)(C)C)cc(P(C)(C)=O)c4OC)c4ccccc34)ccn2)cc(C(=O)NCCOCCOCCOC)c1 [Example 3, 3-((4-((4-(3-(5-(tert-Butyl)-3-(dimethylphosphoryl)-2-methoxyphenyl)ureido)naphthalen-1-yl)oxy)pyridin-2-yl)amino)-5-ethynyl-N-(2-(2-(2-methoxyethoxy)ethoxy)ethyl)benzamide] | 14.5 nM | 18.4 nM | 5.7% | 9.7% | 7.3%

Further lines, with some results ahead:

Row | IC50 (HT29 cells) | Structure (SMILES) | IC50 (PBMCs) | % β-catenin induction (d-U937 cells; test compound 1 μg/mL) | % β-catenin induction (d-U937 cells; test compound 5 μg/mL) | % β-catenin induction (d-U937 cells; test compound 10 μg/mL)
4 | 5.3 nM | COCCOCCOCCOc1cc(Nc2nccc(Oc3ccc(NC(=O)Nc4cc(C(C)(C)C)cc(OCP(C)(C)=O)c4OC)c4ccccc34)n2)cc(OC)c1 [Example 6, 1-(5-(tert-Butyl)-3-((dimethylphosphoryl)methoxy)-2-methoxyphenyl)-3-(4-((2-((3-methoxy-5-(2-(2-(2-methoxyethoxy)ethoxy)ethoxy)phenyl)amino)pyrimidin-4-yl)oxy)naphthalen-1-yl)urea] | 15.5 nM | 1.0% | 29.0% | 65.0%
5 | 8.2 nM | COCCOCCOCCOc1cc(Nc2cc(Oc3ccc(NC(=O)Nc4cc(C(C)(C)C)cc(P(C)(C)=O)c4)c4ccccc34)ccn2)cc(OC)c1 [Example 10, 1-(3-(tert-Butyl)-5-(dimethylphosphoryl)phenyl)-3-(4-((2-((3-methoxy-5-(2-(2-(2-methoxy-ethoxy)ethoxy)ethoxy)phenyl)amino)pyridin-4-yl)oxy)naphthalen-1-yl)urea] | 31.3 nM | −2.5% | −6.0% | −4.0%
6 | 15.8 nM | COc1c(NC(=O)Nc2ccc(Oc3ccnc(Nc4ccccc4)c3)c3ccccc23)cc(C(C)(C)C)cc1P(C)(C)=O [Example 11, 1-(5-(tert-Butyl)-3-(dimethylphosphoryl)-2-methoxyphenyl)-3-(4-((2-(phenylamino)pyridin-4-yl)oxy)naphthalen-1-yl)urea] | 10.5 nM | 5.0% | 19.7% | 27.3%
7 | 18.2 nM | COc1c(CC(N)=O)cc(C(C)(C)C)cc1NC(=O)Nc1ccc(Oc2ccnc(Nc3ccccc3)c2)c2ccccc12 [Example 13, 2-(5-(tert-Butyl)-2-methoxy-3-(3-(4-((2-(phenylamino)pyridin-4-yl)oxy)naphthalen-1-yl)ureido)phenyl)acetamide] | 50.4 nM | −4.0% | 6.5% | 9.5%
